In ChEMBL document CHEMBL1123897, “Nucleosides. 146. 1-Methyl-5-(2-deoxy-2-fluoro-beta-D-arabinofuranosyl)uracil, the C-nucleoside isostere of the potent antiviral agent 1-(2-deoxy-2-fluoro-beta-D-arabinofuranosyl)thymine (FMAU). Studies directed toward the synthesis of 2'-deoxy-2'-substituted arabino nucleosides. 6” (1987):

Key:
Assay type in all cases: functional
Conditions in all cases: read-out: ED50 (the source's name)
[1] = organism: Homo sapiens; assay: In vitro inhibitory activity against Herpes simplex virus-1(HSV-1) was determined in human foreskin fibroblasts
[2] = organism: Homo sapiens; assay: In vitro inhibitory activity against Herpes simplex […] was determined in human foreskin fibroblasts
[3] = organism: Homo sapiens; assay: In vitro inhibitory activity against Varicella zoster virus(VZV) was determined in human foreskin fibroblasts

| Structure (SMILES) | EC50 [1] [µM] | EC50 [2] [µM] | EC50 [3] [µM] |
| --- | --- | --- | --- |
| Cn1cc([C@@H]2O[C@H](CO)[C@@H](O)[C@@H]2F)c(=O)[nH]c1=O | 8.5 | 23 | 6.4 |
| Cc1cn([C@@H]2O[C@H](CO)[C@@H](O)[C@@H]2F)c(=O)[nH]c1=O [5-METHYL-2'-FLUOROARAURACIL] | 0.06 | 0.13 | 0.02 |
